Measured values: patent US8367716B2 (priority 2003, dated 2013)

Tests used:
V. cholerae N16961 = experiment: Crystal violet quantitative biofilm assay in glass test tubes; assay type: cell-based, Vibrio cholerae
S. aureus DK825 = experiment: Effect on growth rate and cell count of S. aureus; assay type: cell-based, Staphylococcus aureus
Protocol: Effect on growth rate of S. aureus. S. aureus DK825 was subcultured from glycerol stocks onto a blood agar plate and incubated at 37° C. for 18 h. A single colony was then inoculated into 5 ml TSB broth (supplemented with 0.25% glucose) and incubated at 37° C. for 24 h with shaking at 250 rpm. From a 10^−3 dilution of the overnight culture a 100 μl aliquot was inoculated into tubes containing 5 ml TSB broth resulting in an initial cell count of […] (confirmed by plating). For “treated” samples, an appropriate aliquot of c-di-GMP was added to give 200 μM c-di-GMP (final concentration). As a negative “untreated” control, tubes containing TSB and a similar volume of 0.9% NaCl were included in the studies. At time zero, 50 μl from each sample was plated on blood agar plates to determine the initial cfu/ml. […]

[1] = assay type: physicochemical
Protocol: c-di-GMP, CGMP and 5′-GMP nucleotides used. c-di-GMP used in the studies in this example was biochemically synthesized in pure form using a recently described novel synthesis method that produces a pure and high yielding preparation of c-di-GMP diammonium salt (FIG. 5A) (Hayakawa et al., 2003). Before use, the purity and stability of lyophilized c-di-GMP was determined by first resuspending the molecule in 0.9% NaCl creating a 2 mM solution then confirmed by HPLC analysis and ESI-TOF MS spectrometry. The cGMP (guanosine 3′, 5′-cyclic monophosphate, Sigma #G7504) and 5′-GMP (guanosine 5′-monophosphate, TCI, Tokyo Kasei Kogyo Co.) nucleotides were also used. Unless otherwise stated, a 4 mM stock solution of each nucleotide in 0.9% NaCl was prepared and stored at 4° C. until needed.
c-di-GMP stability tests. Although the term c-di-GMP is used here, c-di-GMP diammonium salt (and not the free diphosphoric acid) was used for these stability tests. (i) In boiling water: A 2 mM solution of c-di-GMP in water was prepared by dissolving 2.42 mg (3.3 μmol) of c-di-GMP in 1.65 mL of ion-exchanged/ion-free water (prepared by passing distilled water through ion-exchange resins). This solution was heated at 100° C. for 10 min and then concentrated under reduced pressure. The resulting residual was subjected to the HPLC analysis under conditions shown below. (ii) In pH 3 solution: From the 2 mM c-di-GMP aqueous solution described above, 500 μl (containing […] of c-di-GMP) was dissolved in 20 mL of 1 mM HCl to produce a solution with pH 3 (confirmed by pH meter). The resulting solution was stirred at room temperature for 1 h and then neutralized by the addition of 200 mL of a 0.1 mM NaOH. Water was evaporated under reduced pressure and the resulting residue was subjected to HPLC analysis. (iii) In pH 10 solution: From the 2 mM c-di-GMP aqueous solution described above, 500 μl (containing […] of c-di-GMP) was dissolved in 200 mL of a 0.1 mM NaOH aqueous solution to produce a solution with pH 10 (confirmed by pH meter). The resulting solution was stirred at room temperature for 1 h. The reaction was quenched by addition of 20 mL of a 1 mM HCl. Concentration of the resulting neutral solution under reduced pressure gave a residual material that was subjected to the HPLC analysis. The HPLC analysis was performed on a Waters 2695 Separation Module with a Waters 2996 Photodiode Array Detector under the following conditions. Column: Nacalai Tesque COSMOSIL 5C18-AR-II column (4.6 mm (diameter)×250 mm (length)); detection: 254 nm of UV ray; temperature: 40° C.; eluent: A=0.9% NaCl (aq), B=a 20:80 mixture of water:acetonitrile; flow rate:1 mL/min; 0-10 min: A 100%; 10-60 min: linear gradient from A100%/B 0% to A 40% to B 60%.

HeLa cells = experiment: HeLa cell toxicity (cell morphology); assay type: cell-based, human
Protocol: (§1) Safety and toxicity assays. For HeLa cell toxicity studies, various concentrations (0-, 25-, 50-, 100-, 200- and 400 μM) of c-di-GMP were tested in separate wells of chamber slides containing HeLa cells prepared as described above in complete media (in the absence of bacteria). HeLa cell morphology was examined microscopically after 12-, 24- and 48 h incubation. The potential lethality of c-di-GMP administered to mice was also examined. In these studies, adult female CD-1 mice and 5 day old infant mice were inoculated orally with 50 μL of 200 μM c-di-GMP and examined 24 h after c-di-GMP treatment.

CD-1 mice = experiment: Lethality in mice after oral c-di-GMP; assay type: in vivo; conditions: 50 μL of 200 μM, orally, examined 24 h after treatment
Protocol: as §1

Nc1nc2c(ncn2C2OC3COP(=O)(O)OC4C(COP(=O)(O)OC3C2O)OC(n2cnc3c(=O)[nH]c(N)nc32)C4O)c(=O)[nH]1 (stereo not shown) [c-di-GMP, 3′,5′-cyclic diguanylic acid]
effect on biofilm formation (V. cholerae N16961; N16961 wildtype, 24 h static, LB, dose-dependent): increase biofilm formation | effect on biofilm formation (V. cholerae N16961; RocS mutant): increased biofilm forming activity | final cell count (S. aureus DK825; 200 μM, 24 h static culture, no difference to untreated): 6×10^8 CFU/ml | effect on growth rate (S. aureus DK825; 200 μM, hourly examination up to 8 h): no obvious effect | inhibition of cell viability (S. aureus DK825; as recalled in Example 5 from Example 3): approximately 1 log | expression of enterotoxin 1, Down-regulated (S. aureus strain DK825): 0.35 fold | expression of enterotoxin A, Down-regulated (S. aureus strain DK825): 0.54 fold | expression of toxic shock syndrome toxin, Down-regulated (S. aureus strain DK825): 0.45 fold | expression of PBP-2, Up-regulated (S. aureus strain DK825; 200 μM vs untreated control): 2.0 fold | expression of PBP-4, Up-regulated (S. aureus strain DK825; 200 μM vs untreated control): 1.7 fold | expression of agrA (quorum sensing), Up-regulated (S. aureus strain DK825; 200 μM vs untreated control): 5.4 fold | expression of agrB (quorum sensing), Up-regulated (S. aureus strain DK825; 200 μM vs untreated control): 5.8 fold | expression of agrC (quorum sensing), Up-regulated (S. aureus strain DK825; 200 μM vs untreated control): 2.0 fold | expression of agrD (quorum sensing), Up-regulated (S. aureus strain DK825; 200 μM vs untreated control): 2.2 fold | expression of clfA (clumping factor), Down-regulated (S. aureus strain DK825; 200 μM vs untreated control): 0.54 fold | expression of clfB (clumping factor), Down-regulated (S. aureus strain DK825; 200 μM vs untreated control): 0.43 fold | expression of collagen adhesin, Down-regulated (S. aureus strain DK825; 200 μM vs untreated control): 0.55 fold | expression of exfoliative toxin, Down-regulated (S. aureus strain DK825; 200 μM vs untreated control): 0.52 fold | expression of fbnA (fibrinogen binding), Down-regulated (S. aureus strain DK825; 200 μM vs untreated control): 0.66 fold | expression of fnbB (fibronectin binding), Down-regulated (S. aureus strain DK825; 200 μM vs untreated control): 0.47 fold | expression of icaR (intercellular adhesin), Down-regulated (S. aureus strain DK825; 200 μM vs untreated control): 0.62 fold | expression of rsbW (anti-sigmaB), Up-regulated (S. aureus strain DK825; 200 μM vs untreated control): 4.5 fold | expression of saeR (response regulator), Up-regulated (S. aureus strain DK825; 200 μM vs untreated control): 2.5 fold | expression of saeS (histidine kinase), Up-regulated (S. aureus strain DK825; 200 μM vs untreated control): 1.5 fold | expression of vacuolating cytotoxin, Down-regulated (S. aureus strain DK825; 200 μM vs untreated control): 0.56 fold | solubility [1]: soluble | stability in 100 mM ammonium acetate buffer [1]: stable | stability in 100 mM phosphate buffer [1]: stable | stability in 0.9% NaCl solution (monomeric structure) [1]: very stable | stability in physiological saline [1]: stable | stability of 2 mM stock solution in water [1]: formation of an aggregated product | stability of neat (lyophilized) form on storage [1]: formed aggregate molecules | concentrations relatively noncytotoxic to HeLa cells (HeLa cells): < 400 µM | effect on HeLa cell morphology (HeLa cells; 0-, 25-, 50-, 100-, 200- and 400 μM, 12-, 24- and 48 h): no obvious visible effect | changes in HeLa cell morphology (HeLa cells; 400 μM, 48 h exposure): morphological changes | changes in HeLa cell morphology (HeLa cells; up to 400 μM, 24 h exposure): did not cause any obvious changes in cell morphology | lethality (CD-1 mice): no lethal effects were observed
